Source: BigSolDB 2.1

Settings: in n-hexane

| Structure (SMILES) | solubility (mole fraction) (293.15 K) | solubility (mole fraction) (298.15 K) | solubility (mole fraction) (303.15 K) | solubility (mole fraction) (308.15 K) | solubility (mole fraction) (313.15 K) |
| --- | --- | --- | --- | --- | --- |
| Fc1ccc(N=C2[Se]CC3CCCN2C3)cc1 (stereo not given) | 0.00115 | 0.00121 | 0.00128 | 0.00134 | 0.00143 |
| CC(C)c1ccc(N=C2[Se]CC3CCCN2C3)cc1 (stereo not given) | 0.000481 | 0.00056 | 0.000643 | 0.000725 | 0.000819 |
| Cc1ccc(N=C2[Se]CC3CCCN2C3)cc1Cl (stereo not given) | 0.000536 | 0.000551 | 0.000567 | 0.000581 | 0.000595 |
